# Data: US20250049930A1, “PROTAC MOLECULES TARGETING FOXP3 AND USES THEREOF” (CEDARS-SINAI MEDICAL CENTER, priority 2022, published 2025)
# Residues, ends and D or L forms follow the SMILES beside them. *: point of attachment. X1 = O=C1CCC(N2C(=O)c3cccc(*)c3C2=O)C(=O)N1; PEG4 = NCCOCCOCCOCCOCCC(=O)O
# Experiments:
# FoxP3 [1] = target: T1, FoxP3 (Mus musculus, UniProt Q99JB6); assay: FoxP3 positive CD4+ cells in peripheral blood and spleen of mice after PF administration; assay type: in vivo
# T1 construct: from tissue; host or cells: peripheral blood and spleen of mice
# T1 sequence (Q99JB6 1-429): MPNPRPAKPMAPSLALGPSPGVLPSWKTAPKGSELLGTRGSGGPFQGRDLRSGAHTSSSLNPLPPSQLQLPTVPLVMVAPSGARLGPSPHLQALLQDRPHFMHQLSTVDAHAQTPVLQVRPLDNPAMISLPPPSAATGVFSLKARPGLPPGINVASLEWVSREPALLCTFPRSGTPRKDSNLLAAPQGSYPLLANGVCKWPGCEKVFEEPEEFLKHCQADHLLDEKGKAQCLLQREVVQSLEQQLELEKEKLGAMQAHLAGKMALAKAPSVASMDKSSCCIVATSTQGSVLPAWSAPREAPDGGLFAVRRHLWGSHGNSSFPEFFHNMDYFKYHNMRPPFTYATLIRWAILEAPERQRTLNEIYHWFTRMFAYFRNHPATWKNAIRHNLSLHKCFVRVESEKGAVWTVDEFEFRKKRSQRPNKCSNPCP
# Method: (§1) FIGS. 2A-2E depict that a proteolysis-targeting chimera (PROTAC) targeting FoxP3 (PF) degraded FoxP3 in vitro and in vivo. P-FoxP3 forms a ternary complex with cereblon and FoxP3. Surface plasmon resonance (SPR) assay was used to measure the equilibrium dissociation constant (KD) for the ternary complex consisting of cereblon, P-FoxP3 and FoxP3 (FIG. 2A). SPR assay was used to measure the KD for the binary complex consisting of cereblon and P-FoxP3 (FIG. 2B). Mouse splenocytes were treated in vitro with varying PF concentrations and percent of CD4+ cells staining for intracellular FoxP3 was assessed by flow cytometry. (FIG. 2C). Mice received 0.1 mmole of PF intraperitoneally (i.p.) (FIGS. 2D and 2E). 72 hours later, FoxP3 positive CD4+ cells in peripheral blood and spleen were assessed by flow cytometry (FIG. 2D). FoxP3 positive CD4+ cells in peripheral blood were assessed by flow cytometry at various timepoints following PF administration (FIG. 2E). Representative results from duplicate experiments are shown.
# To assess T cells in mice, CD4+ FoxP3+ cells from serial peripheral blood draws were assessed by flow cytometry. To assess lymphocytes in mice treated with various therapies, lymph nodes and spleens were harvested to make single-cell suspensions that were activated by a CA9 peptide (AYEQLLSHL) for 4 days, and then flow cytometry was used to assess CD4, CD8, IFNγ, TNFα, CD62L CD44, and Eomes.
# To determine if PF results in the degradation of FoxP3, mouse splenocytes were treated in vitro with varying concentrations of PF and percent of CD4+ cells staining for intracellular FoxP3 was assessed by flow cytometry. […] The next step was to determine if PF can decrease FoxP3 in vivo. […] 72 hours later, FoxP3 positive CD4+ cells in peripheral blood and spleen were assessed by flow cytometry. […] To understand the time course of FoxP3 decrease, serial blood draws were assessed after a single injection of PF (FIG. 2E). FoxP3 positive CD4+ cells in peripheral blood were assessed by flow cytometry at various timepoints following the PF administration. […]
# Tregs = assay: Treg immunosuppression co-culture assay with mouse splenocytes (CFSE dilution, TNFα); assay type: cell-based; conditions: mouse CD4+ splenocytes treated 72 hours, co-cultured with effector cells stimulated with αCD3 and αCD28
# Method: FIGS. 3A-3D depict that PF decreased the immunosuppressive function of Tregs in vitro and decreased tumor growth in mice. To treat Tregs, CD4+ splenocytes were isolated and treated with PF or various controls for 72 hours. To assess the immunosuppressive effects of these cells, they were washed and co-cultured with effector cells, which were stimulated with antibodies to CD3 and CD28 in vitro (FIGS. 3A-3C). CD8 proliferation was measured using a CFSE dilution assay. To assess CD8+ effector cells, CD4 negative splenocytes were CFSE labeled and CFSE dilution was measured in CD8+ cells by flow cytometry (FIG. 3A). In the same experiment, CD8+ lymphocyte activation was assessed by measuring TNFα (FIG. 3B). Also, CD4+ lymphocyte activation was assessed by measuring TNFα (FIG. 3C). Mice tumors were established by injection RENCA cells subcutaneously in the flank of Balb/C mice (5-7 mice per group) (FIG. 3D). 10 days later, mice were treated i.p., twice a week throughout the experiment, with the indicated drugs and tumor growth was monitored. Pomalidomide conjugated to (PEG)4 (PROTAC-control; PC) and P60 served as controls. […]
# To assess T cell activation in vitro, single suspension of mouse splenocytes were separated into CD4 positive (+) and negative (−) cells using EasySep Mouse CD4+ selection kit (STEMCELL technologies, Vancouver, BC, Canada). […] To study effector cell function, CD4+ and CD4− cells were cocultured (1.2 ratio) with treated-Treg and stimulated with αCD3 (10 μg/mL) and αCD28 (5 μg/mL) for 3 days; percent of CD4+ or CD8+ cells staining for intracellular FoxP3, CFSE, or TNFα were assessed by flow cytometry (LSR II, BD Biosciences, San Jose, CA 95131).
# Tregs play a central role in suppressing and regulating the immune response. […] CD8 proliferation was measured using a CFSE dilution assay. To assess CD8+ effector cells, CD4 negative splenocytes were CFSE labeled and CFSE dilution was measured in CD8+ cells by flow cytometry (FIG. 3A). CD8+ lymphocyte activation was assessed by measuring TNFα (FIG. 3B). Also, CD4+ lymphocyte activation was assessed by measuring TNFα (FIG. 3C). […]
# FoxP3 [2] = target: T1, FoxP3; assay: FoxP3 in CD4+ cells of mouse splenocytes treated in vitro, flow cytometry; assay type: cell-based
# Method: as §1, with “Mice received 0.1 mmole of PF intraperitoneally (i.p.) (FIGS. 2D and 2E).” left out, “Representative results from duplicate experiments are shown.” left out
# To determine if PF results in the degradation of FoxP3, mouse splenocytes were treated in vitro with varying concentrations of PF and percent of CD4+ cells staining for intracellular FoxP3 was assessed by flow cytometry. […] 72 hours later, FoxP3 positive CD4+ cells in peripheral blood and spleen were assessed by flow cytometry. […] To understand the time course of FoxP3 decrease, serial blood draws were assessed after a single injection of PF (FIG. 2E). […]
smiles,measurement,setting,value
"CSCC[C@H](NC(=O)[C@H](C)NC(=O)[C@H](Cc1ccccc1)NC(=O)[C@H](Cc1ccccc1)NC(=O)[C@@H]1CCCN1C(=O)[C@H](Cc1c[nH]c2ccccc12)NC(=O)[C@H](CCSC)NC(=O)[C@H](CCCCN)NC(=O)[C@H](CCCNC(=N)N)NC(=O)[C@H](Cc1ccccc1)NC(=O)[C@H](CO)NC(=O)[C@H](CCC(N)=O)NC(=O)[C@H](Cc1ccccc1)NC(=O)[C@H](CC(=O)O)NC(=O)[C@H](CCCNC(=N)N)NC(=O)CCOCCOCCOCCOCCNc1cccc2c1C(=O)N(C1CCC(=O)NC1=O)C2=O)C(=O)O (some centres unmarked) [PF, Pomalidomide-PEG4-RDFQSFRKMWPFFAM] ({X1-PEG4}-RDFQSFRKMWPFFAM-OH)","FoxP3 positive CD4+ cells in peripheral blood, time course",FoxP3 [1]; serial blood draws after a single injection of PF,"immediately dropped as measured on day 2, and slightly came up on day 8"
same,FoxP3 positive CD4+ cells in peripheral blood and spleen,"FoxP3 [1]; single dose 0.1 mmole i.p., 72 hours later, peripheral decrease p<0.0008",decreased 3 days later in both spleen and peripheral blood
same,duration of FoxP3 decrease after a single PF dose,FoxP3 [1]; spleen and peripheral lymphocytes,at least 8 days
same,suppression of CD4+ effector lymphocyte activation by treated CD4+ cells (TNFα),Tregs,less capable of suppressing the activation of CD4+ effector lymphocytes
same,suppression of CD8+ lymphocyte activation by treated CD4+ lymphocytes (TNFα expression),Tregs,less capable of suppressing
same,suppression of CD8+ lymphocyte proliferation by treated CD4+ lymphocytes (CFSE dilution),Tregs,less capable of suppressing
same,FoxP3 in CD4+ cells,"FoxP3 [2]; fresh mouse splenocytes cultured with IL-2, 1 μm P-FoxP3, 7 days, vs without P-FoxP3",degraded FoxP3 in CD4+ cells
same,percent of CD4+ cells staining for intracellular FoxP3,FoxP3 [2]; mouse splenocytes treated in vitro with varying PF concentrations,decreased in a dose-dependent manner
